Assay results published in PMC4594923, “Food Polyphenols Fail to Cause a Biologically Relevant Reduction of COX-2 Activity” (PLoS ONE, 2015).
Marks after values point to notes of the source that are not given here.

Assays:
COX–2 protein = experiment: COX–2 expression in HCA–7 cells (Western Blot); type: cell-based, human; settings: 24 h, vs. control
Protocol: HCA–7 cells were incubated with sub-cytotoxic concentrations of the polyphenols dissolved in Tris buffered DMEM medium. Cytotoxicity of the polyphenols was evaluated by the lactate dehydrogenase leakage test (Cyto-Tox-ONE, Promega Mannheim, Germany). After 24 h the supernatant was collected for LC-MS analysis and the cells were harvested to analyze the COX–2 expression by Western Blotting.

[1] = system: arachidonic acid (AA) cascade; experiment: liver tissue oxylipin/PG levels in LPS induced sepsis in mice; type: in vivo, C57BL/6N mice; settings: liver tissue 24 h after LPS treatment;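 further: male C57BL/6N mice pretreated i.p. with polyphenols at 100 mg/kg bw or vehicle before LPS, liver oxylipins measured by LC-MS after solid-phase extraction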
Description: (§1) Twelve week old male C57BL/6N mice (Charles River, Sulzfeld, Germany) were used for all experiments. C57BL/6 male mice (H2^b, 11–13 weeks of age) were obtained from Charles River (Sulzfeld, Germany). Animals were cared for in accordance with the institution’s guidelines for experimental animals and with the guidelines of the American Physiological Society. […] Mice were monitored closely and if they appeared compromised (i.e. inactivity, no intake of food or water) after compound or LPS injection the experiment was terminated.
(§2) Oxylipin levels were analyzed in plasma and tissues by LC-MS following SPE extraction of 200 μl plasma or tissue homogenate (50 mg) on Chromabond C18 ec cartridges (Machery-Nagel, Düren, Germany) [19].
(§3) GraphPad Prism 5.0 (GraphPad Software, San Diego, USA) was used for data analysis, the fitting of dose response curves and calculation of the IC50 values. Statistical differences were determined by Dunnetts test (LPS vs. other groups).

[2] = system: arachidonic acid (AA) cascade; experiment: kidney tissue oxylipin/PG levels in LPS induced sepsis in mice;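 further: male C57BL/6N mice challenged with LPS, kidney taken 24 h later, oxylipins quantified by LC-MS after solid-phase extraction of tissue homogenate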
Description: as §1, §2, §3

[3] = kidney tissue 24 h after LPS treatment, LPS +, mean
[4] = kidney tissue 24 h after LPS treatment, LPS +, mean, < = below LOQ
[5] = mice, compound i. p. 100 mg/kg bw 2 h before LPS, 24 h after LPS, vs. LPS group

Oc1ccc(/C=C/c2cc(O)cc3c2[C@@H](c2cc(O)cc(O)c2)[C@H](c2ccc(O)cc2)O3)cc1 [ε-Viniferin, ε-viniferin]
COX-2 Expression, HCA-7 cell line (COX–2 protein): no effect (up to 1 μM) | 4,5-DiHDPE concentration ([1]; mean): 20 nM | 4-HDHA concentration ([1]; mean): 6.8 nM | 5(6)-EpETrE concentration ([1]; mean): 45 nM | 5,6-DiHETE concentration ([1]; mean): < 0.30 nM | 5,6-DiHETrE concentration ([1]; mean): 1.9 nM | 5-HEPE concentration ([1]; mean): 1.2 nM | 5-HETE concentration ([1]; mean): 1.2 nM | 5-iPF2α concentration ([1]; mean): 2.3^‡ nM | 5-oxo-ETE concentration ([1]; mean): 14 nM | 6-keto-PGF1α concentration ([1]; mean): 29 nM | 7,8-DiHDPE concentration ([1]; mean): 1.9 nM | 7-HDHA concentration ([1]; mean): 1.7 nM | 8(9)-EpETE concentration ([1]; mean): 1.5 nM | 8(9)-EpETrE concentration ([1]; mean): 9.8 nM | 8,9-DiHETE concentration ([1]; mean): 1.2 nM | 8,9-DiHETrE concentration ([1]; mean): 4.4 nM | 8,15-DiHETE concentration ([1]; mean): < 0.80 nM | 8-HDHA concentration ([1]; mean): 9.0 nM | 8-HEPE concentration ([1]; mean): < 0.60 nM | 8-HETE concentration ([1]; mean): 4.2 nM | 8-iPF2α concentration ([1]; mean): < 0.10 nM | 9(10)-EpODE concentration ([1]; mean): 9.2 nM | 9(10)-EpOME concentration ([1]; mean): 84 nM | 9(10)-Epoxystearic acid concentration ([1]; mean): 66 nM | 9,10,13-TriHOME concentration ([1]; mean): 16 nM | 9,10-DiHODE concentration ([1]; mean): 3.9 nM | 9,10-DiHOME concentration ([1]; mean): 43^* nM | 9,10-Dihydroxystearic acid concentration ([1]; mean): 170 nM | 9,12,13-TriHOME concentration ([1]; mean): 110 nM | 9-HETE concentration ([1]; mean): 2.9 nM | 9-HODE concentration ([1]; mean): 250 nM | 9-HOTrE concentration ([1]; mean): 5.0 nM | 9-oxo-ODE concentration ([1]; mean): 53 nM | 10(11)-EpDPE concentration ([1]; mean): 15 nM | 10,11-DiHDPE concentration ([1]; mean): 2.2^† nM | 10-HDHA concentration ([1]; mean): 2.2 nM | 11(12)-EpETE concentration ([1]; mean): 2.0 nM | 11(12)-EpETrE concentration ([1]; mean): 27 nM | 11,12-DiHETE concentration ([1]; mean): 1.0^* nM | 11,12-DiHETrE concentration ([1]; mean): 5.5^† nM | 11-HDHA concentration ([1]; mean): 2.8 nM | 11-HETE concentration ([1]; mean): 7.0 nM | 12(13)-EpODE concentration ([1]; mean): 3.9 nM | 12(13)-EpOME concentration ([1]; mean): 72 nM | 12,13-DiHODE concentration ([1]; mean): < 2.0 nM | 12,13-DiHOME concentration ([1]; mean): 45^‡ nM | 12-HEPE concentration ([1]; mean): 6.8 nM | 12-HETE concentration ([1]; mean): 32 nM | 13(14)-EpDPE concentration ([1]; mean): 12 nM | 13,14-DiHDPE concentration ([1]; mean): 1.6^‡ nM | 13,14-dihydro-15-keto-PGE1 concentration ([1]; mean): 0.62 nM | 13,14-dihydro-15-keto-PGF2α concentration ([1]; mean): 7.0 nM | 13-HDHA concentration ([1]; mean): 3.8 nM | 13-HODE concentration ([1]; mean): 230 nM | 13-HOTrE concentration ([1]; mean): 8.5 nM | 13-oxo-ODE concentration ([1]; mean): 9.4 nM | 14(15)-EpETE concentration ([1]; mean): 1.8 nM | 14(15)-EpETrE concentration ([1]; mean): 21 nM | 14,15-DiHETE concentration ([1]; mean): 2.1^‡ nM | 14,15-DiHETrE concentration ([1]; mean): 12^‡ nM | 14-HDHA concentration ([1]; mean): 18 nM | 15(16)-EpODE concentration ([1]; mean): 12 nM | 15(S)-HETrE concentration ([1]; mean): 5.2 nM | 15,16-DiHODE concentration ([1]; mean): 17^† nM | 15-HEPE concentration ([1]; mean): 1.7 nM | 15-HETE concentration ([1]; mean): 14 nM | 15-oxo-ETE concentration ([1]; mean): 2.8 nM | 16(17)-EpDPE concentration ([1]; mean): 11 nM | 16,17-DiHDPE concentration ([1]; mean): 3.0^‡ nM | 16-HDHA concentration ([1]; mean): 2.4 nM | 17(18)-EpETE concentration ([1]; mean): 3.2 nM | 17,18-DiHETE concentration ([1]; mean): 5.6^‡ nM | 17-HDHA concentration ([1]; mean): 9.0 nM | 18-HEPE concentration ([1]; mean): 1.6 nM | 19(20)-EpDPE concentration ([1]; mean): 17 nM | 19,20-DiHDPE concentration ([1]; mean): 17^‡ nM | 20-HDHA concentration ([1]; mean): 9.1^* nM | 20-HEPE concentration ([1]; mean): 4.1^‡ nM | 20-HETE concentration ([1]; mean): < 2.6 nM | EKODE concentration ([1]; mean): 34 nM | PGD1 concentration ([1]; mean): 0.91 nM | PGD2 concentration ([1]; mean): 13 nM | PGE1 concentration ([1]; mean): 0.88 nM | PGE2 concentration ([1]; mean): 4.2 nM | PGF1α concentration ([1]; mean): 2.5 nM | TXB2 concentration ([1]; mean): 8.4 nM | TxB3 concentration ([1]; mean): < 0.05 nM | dihomo-PGF2α concentration ([1]; mean): 1.0 nM | PGF2α concentration ([1]; mean (first listing, r6)): 12 nM | PGF2α concentration ([1]; mean (second listing, r9)): 12 nM | 1a,1b-dihomo-PGF2α [2, 3]: 3.2^† nM | 4,5-DiHDPE [2, 3]: 26^‡ nM | 4-HDHA [2, 3]: 22 nM | 5(6)-EpETrE [2, 3]: 70 nM | 5,6-DiHETrE [2, 3]: 2.2^‡ nM | 5-HEPE [2, 3]: 1.1 nM | 5-HETE [2, 3]: 13 nM | 5-oxo-ETE [2, 3]: 24 nM | 6-keto-PGF1α [2, 3]: 108^‡ nM | 7,8-DiHDPE [2, 3]: 1.9 nM | 7-HDHA [2, 3]: 2.7 nM | 8(9)-EpETrE [2, 3]: 15 nM | 8,9-DiHETrE [2, 3]: 2.2^* nM | 8-HDHA [2, 3]: 18^* nM | 8-HETE [2, 3]: 4.4 nM | 8-iPF2a [2, 3]: 2.7^† nM | 9(10)-EpODE [2, 3]: 9.9 nM | 9(10)-EpOME [2, 3]: 110 nM | 9(10)-Epoxystearic acid [2, 3]: 64 nM | 9,10,13-TriHOME [2, 3]: 10 nM | 9,10-DiHODE [2, 3]: 2.0 nM | 9,10-DiHOME [2, 3]: 27 nM | 9,10-Dihydroxystearic acid [2, 3]: 87 nM | 9,12,13-TriHOME [2, 3]: 69^‡ nM | 9-HETE [2, 3]: 3.6 nM | 9-HODE [2, 3]: 380^† nM | 9-HOTrE [2, 3]: 5.8 nM | 9-oxo-ODE [2, 3]: 73 nM | 10(11)-EpDPE [2, 3]: 27 nM | 10,11-DiHDPE [2, 3]: 2.3 nM | 10-HDHA [2, 3]: 3.6 nM | 11(12)-EpETE [2, 3]: 1.4 nM | 11(12)-EpETrE [2, 3]: 35 nM | 11,12-DiHETrE [2, 3]: 1.8^‡ nM | 11-HDHA [2, 3]: 5.4 nM | 11-HETE [2, 3]: 22^† nM | 12(13)-EpODE [2, 3]: 4.3 nM | 12(13)-EpOME [2, 3]: 80 nM | 12,13-DiHOME [2, 3]: 32^† nM | 12-HEPE [2, 3]: 5.0 nM | 12-HETE [2, 3]: 47 nM | 13(14)-EpDPE [2, 3]: 22 nM | 13,14-DiHDPE [2, 3]: 1.4 nM | 13,14-dihydro-15-keto-PGF2α [2, 3]: 4.6^‡ nM | 13-HDHA [2, 3]: 7.7 nM | 13-HODE [2, 3]: 310^† nM | 13-HOTrE [2, 3]: 6.0 nM | 13-oxo-ODE [2, 3]: 8.3 nM | 14(15)-EpETE [2, 3]: 1.7 nM | 14(15)-EpETrE [2, 3]: 29 nM | 14,15-DiHETE [2, 3]: 0.38^‡ nM | 14,15-DiHETrE [2, 3]: 3.4^‡ nM | 14-HDHA [2, 3]: 20 nM | 15(16)-EpODE [2, 3]: 22 nM | 15(S)-HETrE [2, 3]: 8.0^‡ nM | 15,16-DiHODE [2, 3]: 22 nM | 15-HETE [2, 3]: 30^* nM | 15-oxo-ETE [2, 3]: 9.3 nM | 16(17)-EpDPE [2, 3]: 21 nM | 16,17-DiHDPE [2, 3]: 2.7^‡ nM | 16-HDHA [2, 3]: 4.9^* nM | 17(18)-EpETE [2, 3]: 2.4 nM | 17,18-DiHETE [2, 3]: 1.8^‡ nM | 17-HDHA [2, 3]: 15 nM | 18-HEPE [2, 3]: 1.5 nM | 19(20)-EpDPE [2, 3]: 36 nM | 19,20-DiHDPE [2, 3]: 31^‡ nM | 20-HDHA [2, 3]: 17 nM | 20-HEPE [2, 3]: 11 nM | EKODE [2, 3]: 92^‡ nM | PGD2 [2, 3]: 19^† nM | PGE1 [2, 3]: 8.3 nM | PGE2 [2, 3]: 110 nM | PGF1α [2, 3]: 7.7^‡ nM | PGF2α [2, 3]: 63^‡ nM | TXB2 [2, 3]: 4.9^‡ nM | 5,6-DiHETE [2, 4]: < 0.25 nM | 5-iPF2α [2, 4]: 1.5^‡ nM | 8(9)-EpETE [2, 4]: 1.2 nM | 12,13-DiHODE [2, 4]: < 2.0 nM | 13,14-dihydro-15-keto-PGE1 [2, 4]: 0.49 nM | 20-HETE [2, 4]: 3.6^* nM | PGD1 [2, 4]: 0.84^† nM | PGF2α ([2]; kidney tissue 24 h after LPS treatment, LPS +, mean, second listing of PGF2α (r9)): 63 nM | kidney 6-keto-PGF1α level [2, 5]: elevated | kidney 8-iPGF2α level [2, 5]: elevated | kidney 13,14-dihydro-15-keto-PGE1 level [2, 5]: elevated
